In brackets after ≈: the same amount, converted by molar mass.
system: Escherichia coli (imp); assay: MIC by broth dilution, Escherichia coli (imp); format: cell-based; details: not given
Description: (§1) The minimal inhibitory concentration (MIC), the lowest concentration of the antibiotic which inhibits growth of the test organism, is determined by the broth dilution method using Muller-Hinton II […] (Baltimore Biological Laboratories) following the recommendations of the National Committee for Clinical Laboratory Standards [Methods for dilution antimicrobial susceptibility tests for bacteria that grow aerobically. Approved standard M7-A2. National Committee for Clinical Laboratory Standards, Villanova, Pa.].
(§2) An inoculum level of 5×10^5 CFU/ml, and a range of antibiotic concentrations (64–0.06 μg/ml) is used. The MIC is determined after the microtiter plates are incubated for 18 hours at 35° C. in an ambient air incubator. The test organisms comprise a spectrum of the Gram-positive bacteria Staphylococcus aureus, Streptococcus pneumoniae, and Enterococcus sp., the Gram-negative bacteria Escherichia coli, and the yeast Candida albicans. These organisms include recent clinical isolates that are resistant to methicillin and vancomycin.

Compound | MIC [µg/mL]
COc1c2ccc3c(=O)c4cc(C)n(CC(=O)N5CC(C(=O)OC(C)C)NC(=O)C5C)c(=O)c4c(=O)c3c2c(O)c2c(=O)c3cccc(O)c3c(=O)c12 (centres unmarked) [Example 6, P175-A isopropyl ester] | 16 (≈ 22.2 µM)
COc1c2ccc3c(=O)c4cc(C)n(CC(=O)N5CC(C(=O)OCc6ccccc6)NC(=O)C5C)c(=O)c4c(=O)c3c2c(O)c2c(=O)c3cccc(O)c3c(=O)c12 (centres unmarked) [Example 7, P175-A benzyl ester] | 32 (≈ 41.6 µM)
COC(=O)COC(=O)C1CN(C(=O)Cn2c(C)cc3c(=O)c4ccc5c(OC)c6c(=O)c7c(O)cccc7c(=O)c6c(O)c5c4c(=O)c3c2=O)C(C)C(=O)N1 (centres unmarked) [Example 8A] | 8 (≈ 10.6 µM)
COc1c2ccc3c(=O)c4cc(C)n(CC(=O)N5CC(C(=O)O)NC(=O)C5C)c(=O)c4c(=O)c3c2c(O)c2c(=O)c3cccc(OCC(=O)O)c3c(=O)c12 (centres unmarked) [Example 9D] | > 64

system: Bacillus subtilis; assay: MIC by broth dilution, Bacillus subtilis; format: cell-based; details: not given

Compound | MIC [µg/mL]
COC(=O)COC(=O)C1CN(C(=O)Cn2c(C)cc3c(=O)c4ccc5c(OC)c6c(=O)c7c(O)cccc7c(=O)c6c(O)c5c4c(=O)c3c2=O)C(C)C(=O)N1 (centres unmarked) [Example 8A] | 1 (≈ 1.33 µM)

same assay, conditions: read-out: MIC

Compound | MIC [µg/mL]
COc1c2ccc3c(=O)c4cc(C)n(CC(=O)N5CC(C(=O)OC(C)C)NC(=O)C5C)c(=O)c4c(=O)c3c2c(O)c2c(=O)c3cccc(O)c3c(=O)c12 (centres unmarked) [Example 6, P175-A isopropyl ester] | 8 (≈ 11.1 µM)
COc1c2ccc3c(=O)c4cc(C)n(CC(=O)N5CC(C(=O)OCc6ccccc6)NC(=O)C5C)c(=O)c4c(=O)c3c2c(O)c2c(=O)c3cccc(O)c3c(=O)c12 (centres unmarked) [Example 7, P175-A benzyl ester] | 4 (≈ 5.2 µM)
COc1c2ccc3c(=O)c4cc(C)n(CC(=O)N5CC(C(=O)O)NC(=O)C5C)c(=O)c4c(=O)c3c2c(O)c2c(=O)c3cccc(OCC(=O)O)c3c(=O)c12 (centres unmarked) [Example 9D] | 8 (≈ 10.8 µM)

system: Staphylococcus aureus; assay: MIC by broth dilution, Staphylococcus aureus; format: cell-based; details: 3 strains, including a methicillin-resistant strain (MRSA), 18 hours at 35° C., read-out: MIC
Description: as §1, §2

Compound | MIC [µg/mL]
COc1c2ccc3c(=O)c4cc(C)n(CC(=O)N5CC(C(=O)OC(C)C)NC(=O)C5C)c(=O)c4c(=O)c3c2c(O)c2c(=O)c3cccc(O)c3c(=O)c12 (centres unmarked) [Example 6, P175-A isopropyl ester] | 1 to 4 (≈ 1.39 to 5.54 µM)
COc1c2ccc3c(=O)c4cc(C)n(CC(=O)N5CC(C(=O)OCc6ccccc6)NC(=O)C5C)c(=O)c4c(=O)c3c2c(O)c2c(=O)c3cccc(O)c3c(=O)c12 (centres unmarked) [Example 7, P175-A benzyl ester] | 0.12 to 2 (≈ 0.156 to 2.6 µM)
COc1c2ccc3c(=O)c4cc(C)n(CC(=O)N5CC(C(=O)O)NC(=O)C5C)c(=O)c4c(=O)c3c2c(O)c2c(=O)c3cccc(OCC(=O)O)c3c(=O)c12 (centres unmarked) [Example 9D] | 8 to 16 (≈ 10.8 to 21.7 µM)

same assay, conditions: MRSA, 18 h

Compound | MIC [µg/mL]
COC(=O)COC(=O)C1CN(C(=O)Cn2c(C)cc3c(=O)c4ccc5c(OC)c6c(=O)c7c(O)cccc7c(=O)c6c(O)c5c4c(=O)c3c2=O)C(C)C(=O)N1 (centres unmarked) [Example 8A] | 0.5 to 2 (≈ 0.665 to 2.66 µM)

system: Candida albicans; assay: MIC by broth dilution, Candida albicans; format: cell-based; details: not given
Description: as §1, §2

Compound | MIC [µg/mL]
COC(=O)COC(=O)C1CN(C(=O)Cn2c(C)cc3c(=O)c4ccc5c(OC)c6c(=O)c7c(O)cccc7c(=O)c6c(O)c5c4c(=O)c3c2=O)C(C)C(=O)N1 (centres unmarked) [Example 8A] | > 64

same assay, conditions: read-out: MIC

Compound | MIC [µg/mL]
COc1c2ccc3c(=O)c4cc(C)n(CC(=O)N5CC(C(=O)OC(C)C)NC(=O)C5C)c(=O)c4c(=O)c3c2c(O)c2c(=O)c3cccc(O)c3c(=O)c12 (centres unmarked) [Example 6, P175-A isopropyl ester] | > 64
COc1c2ccc3c(=O)c4cc(C)n(CC(=O)N5CC(C(=O)OCc6ccccc6)NC(=O)C5C)c(=O)c4c(=O)c3c2c(O)c2c(=O)c3cccc(O)c3c(=O)c12 (centres unmarked) [Example 7, P175-A benzyl ester] | > 64
COc1c2ccc3c(=O)c4cc(C)n(CC(=O)N5CC(C(=O)O)NC(=O)C5C)c(=O)c4c(=O)c3c2c(O)c2c(=O)c3cccc(OCC(=O)O)c3c(=O)c12 (centres unmarked) [Example 9D] | > 64

system: Escherichia coli; assay: MIC by broth dilution, Escherichia coli; format: cell-based; details: not given
Description: as §1, §2

Compound | MIC [µg/mL]
COC(=O)COC(=O)C1CN(C(=O)Cn2c(C)cc3c(=O)c4ccc5c(OC)c6c(=O)c7c(O)cccc7c(=O)c6c(O)c5c4c(=O)c3c2=O)C(C)C(=O)N1 (centres unmarked) [Example 8A] | > 64

same assay, conditions: read-out: MIC

Compound | MIC [µg/mL]
COc1c2ccc3c(=O)c4cc(C)n(CC(=O)N5CC(C(=O)OC(C)C)NC(=O)C5C)c(=O)c4c(=O)c3c2c(O)c2c(=O)c3cccc(O)c3c(=O)c12 (centres unmarked) [Example 6, P175-A isopropyl ester] | > 64
COc1c2ccc3c(=O)c4cc(C)n(CC(=O)N5CC(C(=O)OCc6ccccc6)NC(=O)C5C)c(=O)c4c(=O)c3c2c(O)c2c(=O)c3cccc(O)c3c(=O)c12 (centres unmarked) [Example 7, P175-A benzyl ester] | > 64
COc1c2ccc3c(=O)c4cc(C)n(CC(=O)N5CC(C(=O)O)NC(=O)C5C)c(=O)c4c(=O)c3c2c(O)c2c(=O)c3cccc(OCC(=O)O)c3c(=O)c12 (centres unmarked) [Example 9D] | > 64

system: Enterococcus faecalis; assay: MIC by broth dilution, Enterococcus faecalis; format: cell-based; details: 2 strains, including a vancomycin-resistant strain (VRE), 18 hours at 35° C., read-out: MIC
Description: as §1, §2

Compound | MIC [µg/mL]
COc1c2ccc3c(=O)c4cc(C)n(CC(=O)N5CC(C(=O)OC(C)C)NC(=O)C5C)c(=O)c4c(=O)c3c2c(O)c2c(=O)c3cccc(O)c3c(=O)c12 (centres unmarked) [Example 6, P175-A isopropyl ester] | 4 (≈ 5.54 µM)
COc1c2ccc3c(=O)c4cc(C)n(CC(=O)N5CC(C(=O)OCc6ccccc6)NC(=O)C5C)c(=O)c4c(=O)c3c2c(O)c2c(=O)c3cccc(O)c3c(=O)c12 (centres unmarked) [Example 7, P175-A benzyl ester] | 2 to 8 (≈ 2.6 to 10.4 µM)
COc1c2ccc3c(=O)c4cc(C)n(CC(=O)N5CC(C(=O)O)NC(=O)C5C)c(=O)c4c(=O)c3c2c(O)c2c(=O)c3cccc(OCC(=O)O)c3c(=O)c12 (centres unmarked) [Example 9D] | 8 (≈ 10.8 µM)

same assay, conditions: VRE, 18 h

Compound | MIC [µg/mL]
COC(=O)COC(=O)C1CN(C(=O)Cn2c(C)cc3c(=O)c4ccc5c(OC)c6c(=O)c7c(O)cccc7c(=O)c6c(O)c5c4c(=O)c3c2=O)C(C)C(=O)N1 (centres unmarked) [Example 8A] | 0.5 to 1 (≈ 0.665 to 1.33 µM)

system: Streptococcus pneumoniae GC 1894; assay: MIC by broth dilution, Streptococcus pneumoniae GC 1894; format: cell-based; details: Streptococcus pneumoniae GC 1894+ (THY)
Description: as §1, §2

Compound | MIC [µg/mL]
COC(=O)COC(=O)C1CN(C(=O)Cn2c(C)cc3c(=O)c4ccc5c(OC)c6c(=O)c7c(O)cccc7c(=O)c6c(O)c5c4c(=O)c3c2=O)C(C)C(=O)N1 (centres unmarked) [Example 8A] | 64 (≈ 85.1 µM)

same assay, conditions: Streptococcus pneumoniae, GC1894

Compound | MIC [µg/mL]
COC(=O)COC(=O)C1CN(C(=O)Cn2c(C)cc3c(=O)c4ccc5c(OC)c6c(=O)c7c(O)cccc7c(=O)c6c(O)c5c4c(=O)c3c2=O)C(C)C(=O)N1 (centres unmarked) [Example 8A] | 64 (≈ 85.1 µM)

same assay, conditions: Streptococcus pneumoniae, GC1894, Streptococcus pneumoniae GC 1894* (5% LHB); read-out: MIC

Compound | MIC [µg/mL]
COc1c2ccc3c(=O)c4cc(C)n(CC(=O)N5CC(C(=O)OC(C)C)NC(=O)C5C)c(=O)c4c(=O)c3c2c(O)c2c(=O)c3cccc(O)c3c(=O)c12 (centres unmarked) [Example 6, P175-A isopropyl ester] | 2 (≈ 2.77 µM)
COc1c2ccc3c(=O)c4cc(C)n(CC(=O)N5CC(C(=O)OCc6ccccc6)NC(=O)C5C)c(=O)c4c(=O)c3c2c(O)c2c(=O)c3cccc(O)c3c(=O)c12 (centres unmarked) [Example 7, P175-A benzyl ester] | 0.5 (≈ 0.65 µM)
COc1c2ccc3c(=O)c4cc(C)n(CC(=O)N5CC(C(=O)O)NC(=O)C5C)c(=O)c4c(=O)c3c2c(O)c2c(=O)c3cccc(OCC(=O)O)c3c(=O)c12 (centres unmarked) [Example 9D] | > 64

same assay, conditions: Streptococcus pneumoniae, GC1894, Streptococcus pneumoniae GC 1894+ (THY); read-out: MIC

Compound | MIC [µg/mL]
COc1c2ccc3c(=O)c4cc(C)n(CC(=O)N5CC(C(=O)OC(C)C)NC(=O)C5C)c(=O)c4c(=O)c3c2c(O)c2c(=O)c3cccc(O)c3c(=O)c12 (centres unmarked) [Example 6, P175-A isopropyl ester] | 4 (≈ 5.54 µM)
COc1c2ccc3c(=O)c4cc(C)n(CC(=O)N5CC(C(=O)OCc6ccccc6)NC(=O)C5C)c(=O)c4c(=O)c3c2c(O)c2c(=O)c3cccc(O)c3c(=O)c12 (centres unmarked) [Example 7, P175-A benzyl ester] | 0.25 (≈ 0.325 µM)
COc1c2ccc3c(=O)c4cc(C)n(CC(=O)N5CC(C(=O)O)NC(=O)C5C)c(=O)c4c(=O)c3c2c(O)c2c(=O)c3cccc(OCC(=O)O)c3c(=O)c12 (centres unmarked) [Example 9D] | 64 (≈ 86.8 µM)

From US7211417B2, “Antibiotic P175-A and semisynthetic derivatives thereof” (priority 2003, dated 2007)
